target: T1, FLK-1 receptor (Mus musculus, UniProt P35918); assay: FLK-1 ELISA (kinase activity of the FLK-1 receptor in FLK-1/NIH3T3 cells, VEGF stimulated); format: cell-based; parameters: concentration or dose not given beside the values
T1 construct: expressed in transfected cells; host or cells: NIH3T3 C7#3
Procedure, shortened: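 FLK-1-expressing NIH3T3 C7#3 cells, starved overnight in 0.1% FBS medium, were treated with compounds at a 1:200 final dilution (0.5% DMSO) for 2 h at 37 °C, with VEGF stimulation. FLK-1 kinase activity was read by ELISA on anti-rabbit IgG plates using affinity-purified anti-FLK-1 antiserum.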

T1 sequence (P35918 20-1345): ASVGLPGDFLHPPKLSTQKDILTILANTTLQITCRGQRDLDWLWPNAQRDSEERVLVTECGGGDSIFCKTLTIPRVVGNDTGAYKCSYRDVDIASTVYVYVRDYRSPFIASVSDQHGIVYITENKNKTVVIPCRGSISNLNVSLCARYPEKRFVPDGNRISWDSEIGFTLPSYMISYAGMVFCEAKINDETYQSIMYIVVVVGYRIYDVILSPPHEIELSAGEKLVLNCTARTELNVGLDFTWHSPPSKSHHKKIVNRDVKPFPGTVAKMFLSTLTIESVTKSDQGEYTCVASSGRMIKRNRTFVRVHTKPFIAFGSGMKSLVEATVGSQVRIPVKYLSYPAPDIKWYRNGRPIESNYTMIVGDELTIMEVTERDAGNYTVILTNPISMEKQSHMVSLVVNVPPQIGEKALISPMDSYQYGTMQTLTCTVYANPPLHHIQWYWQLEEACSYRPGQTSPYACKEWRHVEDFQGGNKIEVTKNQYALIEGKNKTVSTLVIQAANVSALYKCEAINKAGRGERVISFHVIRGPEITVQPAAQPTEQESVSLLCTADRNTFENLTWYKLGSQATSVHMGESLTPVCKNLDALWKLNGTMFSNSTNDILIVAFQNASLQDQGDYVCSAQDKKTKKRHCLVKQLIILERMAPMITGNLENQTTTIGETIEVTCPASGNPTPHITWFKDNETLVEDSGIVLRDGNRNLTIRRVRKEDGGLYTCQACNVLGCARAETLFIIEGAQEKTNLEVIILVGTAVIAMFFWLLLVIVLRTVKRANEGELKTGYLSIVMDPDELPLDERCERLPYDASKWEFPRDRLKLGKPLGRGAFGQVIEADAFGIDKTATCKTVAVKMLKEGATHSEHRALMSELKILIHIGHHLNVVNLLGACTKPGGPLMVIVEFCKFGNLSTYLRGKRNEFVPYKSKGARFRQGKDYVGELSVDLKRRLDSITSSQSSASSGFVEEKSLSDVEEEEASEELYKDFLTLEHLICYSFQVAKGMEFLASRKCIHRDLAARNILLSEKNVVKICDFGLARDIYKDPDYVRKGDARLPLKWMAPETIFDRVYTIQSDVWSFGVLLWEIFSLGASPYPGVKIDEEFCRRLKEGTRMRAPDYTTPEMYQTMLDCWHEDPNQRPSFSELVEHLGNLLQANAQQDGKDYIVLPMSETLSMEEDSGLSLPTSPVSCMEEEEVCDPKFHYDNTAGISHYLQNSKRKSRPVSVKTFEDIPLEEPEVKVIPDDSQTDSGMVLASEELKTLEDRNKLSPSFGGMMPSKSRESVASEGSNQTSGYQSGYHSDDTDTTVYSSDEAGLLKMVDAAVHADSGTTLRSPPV

| Compound | Fik Kinase %Inhibition |
| --- | --- |
| Cc1ccsc1C=C1C(=O)Nc2ccc(S(=O)(=O)Nc3ccc(C(F)(F)F)cc3)cc21 [10729/E05] | 46.8% |
| O=C1Nc2ccc(S(=O)(=O)Nc3ccc(C(F)(F)F)cc3)cc2C1=Cc1cccc(C(F)(F)F)c1F [10728/E07] | 9.6% |
| CNS(=O)(=O)c1ccc2c(c1)C(=Cc1cccc(Oc3ccccc3)c1)C(=O)N2 [10729/D06] | 0.2% |
| CCOC(=O)c1c(C)[nH]c(C=C2C(=O)Nc3ccc(I)cc32)c1C [10718/B02] | 7.0% |
| CNS(=O)(=O)c1ccc2c(c1)C(=Cc1ccncc1)C(=O)N2 [10729/D09] | -9.6% |
| O=C1Nc2ccc(S(=O)(=O)Nc3ccc(C(F)(F)F)cc3)cc2C1=Cc1cccc(Oc2ccccc2)c1 [10729/E06] | 12.1% |
| COc1ccc(OC)c(C=C2C(=O)Nc3ccc(S(=O)(=O)NN4CCOCC4)cc32)c1 [10728/F02] | 2.9% |
| Cc1c(Br)ccc2c1C(=Cc1ccccn1)C(=O)N2 [10729/C07] | -22.4% |
| COc1cccc(OC)c1C=C1C(=O)Nc2ccc(CCCl)cc21 [10728/G03] | 14.3% |
| Cc1ccsc1C=C1C(=O)Nc2ccc(I)cc21 [10729/B05] | -5.2% |
| O=C1Nc2ccc(I)cc2C1=CC1C=CCCC1 (centres unmarked) [10729/B11] | 7.8% |
| COc1cc(C=C2C(=O)Nc3ccc(CCCl)cc32)cc2c1OCO2 [10728/G11] | 3.2% |
| Cc1c(Br)ccc2c1C(=Cc1ccncc1)C(=O)N2 [10729/C09] | -26.4% |
| CNS(=O)(=O)c1ccc2c(c1)C(=Cc1c(OC)ccc3ccccc13)C(=O)N2 [10729/D02] | 12.2% |
| Cc1c(Br)ccc2c1C(=Cc1cccnc1)C(=O)N2 [10729/C08] | -20.3% |
| CNS(=O)(=O)c1ccc2c(c1)C(=Cc1cccnc1)C(=O)N2 [10729/D08] | -26.2% |
| CSc1ccc(C=C2C(=O)Nc3c(Br)cc(Br)cc32)cc1 [10729/A04] | -4.0% |
| Cc1c(Br)ccc2c1C(=Cc1ccc(N3CCCC3)cc1)C(=O)N2 [10729/C10] | 2.5% |
| CNS(=O)(=O)c1ccc2c(c1)C(=CC1C=CCCC1)C(=O)N2 (centres unmarked) [10729/D11] | -2.0% |
| COc1cc(Br)c(O)c(C=C2C(=O)Nc3ccc(I)cc32)c1 [10718/B03] | 1.7% |
| COc1ccc2ccccc2c1C=C1C(=O)Nc2ccc(S(=O)(=O)Nc3ccc(C(F)(F)F)cc3)cc21 [10729/E02] | 26.6% |
| COc1cc(C=C2C(=O)Nc3ccc(S(=O)(=O)Nc4ccc(C(F)(F)F)cc4)cc32)cc2c1OCO2 [10728/E11] | 16.3% |
| CNS(=O)(=O)c1ccc2c(c1)C(=Cc1cc(C(F)(F)F)ccc1F)C(=O)N2 [10728/D08] | 13.5% |
| CSc1ccc(C=C2C(=O)Nc3ccc(Br)c(C)c32)cc1 [10729/C04] | -2.5% |
| CSc1ccc(C=C2C(=O)Nc3ccc(S(=O)(=O)Nc4ccc(C(F)(F)F)cc4)cc32)cc1 [10729/E04] | 9.7% |
| CNS(=O)(=O)c1ccc2c(c1)C(=Cc1sccc1C)C(=O)N2 [10729/D05] | 2.2% |

Source: patent EP1247803A2, “Indolinone compounds suitable for modulation of protein kinases” (Sugen, Inc., priority 1996, dated 1998)
